Measurements: ChEMBL document CHEMBL1201862, “PubChem BioAssay data set” (2004)
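A five-concentration, 48-hour dose response in 96-well plates underlies each endpoint, interpolated linearly between surrounding concentrations. At the GI50, growth is halved.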 The source made the active and inactive calls. No stated cut-off is given here; in the data, active = GI50 up to about 1.1 µM and inactive = higher.

Key:
Test in all cases: growth of human tumour cells (NCI), 48 h
SK-OV-3 = test system: SK-OV-3
SK-MEL-5 = test system: SK-MEL-5
OVCAR-4 = test system: OVCAR-4
SN12C = test system: SN12C
OVCAR-8 = test system: OVCAR-8
T47D = test system: T47D
NCI-H226 = test system: NCI-H226
NCI/ADR-RES = test system: NCI/ADR-RES
SR = test system: SR
CCRF-CEM = test system: CCRF-CEM
HCT-116 = test system: HCT-116
SNB-75 = test system: SNB-75
SK-MEL-28 = test system: SK-MEL-28
COLO 205 = test system: COLO 205
HOP-92 = test system: HOP-92
SF-539 = test system: SF-539
SF-295 = test system: SF-295
DU-145 = test system: DU-145
SK-MEL-2 = test system: SK-MEL-2
SW-620 = test system: SW-620

Row | SMILES | GI50 (SK-OV-3) | GI50 (SK-MEL-5) | GI50 (OVCAR-4) | GI50 (SN12C) | GI50 (OVCAR-8) | GI50 (T47D) | GI50 (NCI-H226) | GI50 (NCI/ADR-RES) | GI50 (SR) | GI50 (CCRF-CEM) | GI50 (HCT-116) | GI50 (SNB-75) | GI50 (SK-MEL-28) | GI50 (COLO 205) | GI50 (HOP-92) | GI50 (SF-539) | GI50 (SF-295) | GI50 (DU-145) | GI50 (SK-MEL-2) | GI50 (SW-620)
1 | Cc1n[nH]c(C(F)(F)F)c1/N=N/N1CCOCC1 | 16.6 µM (inactive) | 2.92 µM (inactive) | 5.86 µM (inactive) | 11 µM (inactive) | 3.76 µM (inactive) | 3.27 µM (inactive) | 8.53 µM (inactive) | 6.76 µM (inactive) | 1.24 µM (inactive) | 0.423 µM (active) | 1.94 µM (inactive) | 12.5 µM (inactive) | 14.7 µM (inactive) | 4.69 µM (inactive) | 2.42 µM (inactive) | 14.2 µM (inactive) | 12.6 µM (inactive) | 4.59 µM (inactive) | 13.1 µM (inactive) | 2.32 µM (inactive)
2 | O=C(/C=C/c1cccs1)c1cccc(C(=O)/C=C/c2cccs2)n1 | > 100 µM (inactive) | > 100 µM (inactive) | > 100 µM (inactive) | 19.9 µM (inactive) | 3.68 µM (inactive) | 19.4 µM (inactive) | > 100 µM (inactive) | > 60 µM (inactive) | 2.26 µM (inactive) | 2.82 µM (inactive) | 2.82 µM (inactive) | 65.9 µM (inactive) | 53.2 µM (inactive) | > 100 µM (inactive) | > 100 µM (inactive) | 6 µM (inactive) | 76 µM (inactive) | > 81.3 µM (inactive) | > 100 µM (inactive) | 4.05 µM (inactive)
3 | CN(C)c1ccc2nc3c(C(=O)O)cc(O)c(O)c3[o+]c2c1 | 25 µM (inactive) | 15.3 µM (inactive) | 29 µM (inactive) | 20.2 µM (inactive) | 41 µM (inactive) | 15.1 µM (inactive) | 56.5 µM (inactive) | 28.7 µM (inactive) | 17.5 µM (inactive) | 10.5 µM (inactive) | 24.9 µM (inactive) | 21.5 µM (inactive) | 43 µM (inactive) | 24.7 µM (inactive) | 67 µM (inactive) | 27 µM (inactive) | > 100 µM (inactive) | 31.8 µM (inactive) | 16.3 µM (inactive) | 31 µM (inactive)
4 | CSc1nc(SC)c2c(C)cn(C3OC(C)C(O)C(O)C3O)c2n1 (stereo not given) | > 100 µM (inactive) | 63.4 µM (inactive) | 64.1 µM (inactive) | > 100 µM (inactive) | 74.6 µM (inactive) | 34.1 µM (inactive) | 66.7 µM (inactive) | 67.3 µM (inactive) | 33.3 µM (inactive) | 45.7 µM (inactive) | > 100 µM (inactive) | 52.6 µM (inactive) | 84.3 µM (inactive) | 86.7 µM (inactive) | 32.6 µM (inactive) | 21 µM (inactive) | 57 µM (inactive) | 62.5 µM (inactive) | 73.5 µM (inactive) | > 100 µM (inactive)
5 | Cn1c(=O)nc2n(-c3ccc(Cl)cc3)c3cc(Cl)ccc3nc-2c1=O | 18.3 µM (inactive) | 1.67 µM (inactive) | 1.32 µM (inactive) | 6.21 µM (inactive) | 2.72 µM (inactive) | 0.92 µM (active) | 25.8 µM (inactive) | 8.51 µM (inactive) | 3.93 µM (inactive) | 5.82 µM (inactive) | 3.92 µM (inactive) | 7.14 µM (inactive) | 3.2 µM (inactive) | 2.11 µM (inactive) | 7.31 µM (inactive) | 16.5 µM (inactive) | 10.9 µM (inactive) | 15.6 µM (inactive) | 2.55 µM (inactive) | 2.12 µM (inactive)
6 | CC(=O)NNc1nc(C)c(C(/C=C/c2ccc([N+](=O)[O-])cc2)=N/N)s1 | 41.3 µM (inactive) | > 100 µM (inactive) | > 100 µM (inactive) | 84.5 µM (inactive) | > 100 µM (inactive) | > 100 µM (inactive) | > 100 µM (inactive) | > 100 µM (inactive) | 37.7 µM (inactive) | > 100 µM (inactive) | > 100 µM (inactive) | 87.9 µM (inactive) | > 100 µM (inactive) | > 100 µM (inactive) | > 100 µM (inactive) | > 100 µM (inactive) | > 100 µM (inactive) | 96.4 µM (inactive) | > 100 µM (inactive) | > 100 µM (inactive)
7 | O=C(CCCl)NN=C1NCCN1 | > 100 µM (inactive) | > 100 µM (inactive) | > 100 µM (inactive) | > 100 µM (inactive) | > 100 µM (inactive) | > 100 µM (inactive) | > 100 µM (inactive) | > 100 µM (inactive) | > 100 µM (inactive) | > 100 µM (inactive) | > 100 µM (inactive) | > 100 µM (inactive) | > 100 µM (inactive) | > 100 µM (inactive) | > 100 µM (inactive) | > 100 µM (inactive) | > 100 µM (inactive) | > 100 µM (inactive) | > 100 µM (inactive) | > 100 µM (inactive)
8 | O=C1/C(=C\c2ccc([N+](=O)[O-])o2)SC2NC(COc3ccc(Cl)cc3)=NN12 (stereo not given) | 24 µM (inactive) | 12.8 µM (inactive) | 1.87 µM (inactive) | 14 µM (inactive) | 3.18 µM (inactive) | 1.79 µM (inactive) | 18.6 µM (inactive) | 6.4 µM (inactive) | 3.47 µM (inactive) | 1.99 µM (inactive) | 3.4 µM (inactive) | 15.5 µM (inactive) | 4.17 µM (inactive) | 3.37 µM (inactive) | 2.09 µM (inactive) | 4.1 µM (inactive) | 19.3 µM (inactive) | 12.9 µM (inactive) | 18.9 µM (inactive) | 2.43 µM (inactive)
9 | C[C@]12OC(=O)[C@]3(O)CC[C@H]4[C@@H](C[C@@H](O)[C@@]5(Cl)CC=CC(=O)[C@]45C)[C@]45OCC6C(=O)O[C@@H]1C[C@@]6(C)[C@H](C4=O)[C@@]32O5 (stereo not given in full) | 3.5 µM (inactive) | 1.56 µM (inactive) | 3.78 µM (inactive) | 1.86 µM (inactive) | 1.41 µM (inactive) | 1.82 µM (inactive) | 1.91 µM (inactive) | 2.6 µM (inactive) | 0.811 µM (active) | 0.22 µM (active) | 0.656 µM (active) | 9.31 µM (inactive) | 1.49 µM (inactive) | 0.867 µM (active) | 1.42 µM (inactive) | 0.759 µM (active) | 3.05 µM (inactive) | 3.82 µM (inactive) | 1.17 µM (inactive) | 0.494 µM (active)
10 | COc1cc(C(=O)OC2CC(C)=CC[C@@]3(C)CC[C@](O)(C(C)C)C23)ccc1O (stereo not given in full) | 15.4 µM (inactive) | 17.5 µM (inactive) | 15.9 µM (inactive) | 18.4 µM (inactive) | 18.2 µM (inactive) | 22.3 µM (inactive) | 15.6 µM (inactive) | 15.4 µM (inactive) | 25.5 µM (inactive) | 26.3 µM (inactive) | 19 µM (inactive) | 18.7 µM (inactive) | 30.3 µM (inactive) | 20 µM (inactive) | 16.3 µM (inactive) | 14.1 µM (inactive) | 21.7 µM (inactive) | 17.9 µM (inactive) | 16.4 µM (inactive) | 28.5 µM (inactive)
11 | COC1C(N)C(OC2C(Oc3cccc4c(O)c5c(=O)oc6ccc(C)c7c(=O)oc(c34)c5c67)OC(C)C(O)C2(C)O)OC(C)C1O (stereo not given) | 0.114 µM (active) | 0.031 µM (active) | 0.405 µM (active) | 0.0178 µM (active) | 0.0154 µM (active) | 0.0266 µM (active) | 0.0201 µM (active) | 0.427 µM (active) | < 0.215 µM (active) | < 0.0236 µM (active) | < 0.01 µM (active) | 0.0313 µM (active) | 0.029 µM (active) | 0.0456 µM (active) | 0.0231 µM (active) | < 0.0154 µM (active) | 0.0312 µM (active) | 0.187 µM (active) | 0.0108 µM (active) | 0.0102 µM (active)
